This is an account of results in article PMC7759012 (Biochemistry, 2020).

Format in all cases: binding
The target in test [1] is BirA (E. coli biotin protein ligase; BirA wt) (Escherichia coli, UniProt P06709, R118A). Briefly: ITC, direct titration, single-site model.
The target in test [2] is BirA (E. coli biotin protein ligase; BirA wt) (Escherichia coli, UniProt P06709, K183A). Briefly: ITC, direct titration, single-site model.
For test [3], the target named is BirA (E. coli biotin protein ligase; BirA wt) (Escherichia coli, UniProt P06709, E313A). Briefly: ITC, direct titration, single-site model.
Test [4] has as its target BirA (E. coli biotin protein ligase; BirA wt) (Escherichia coli, UniProt P06709). Nature of the test: ITC, TAPS, proton linkage. The note with it: pH 6.0; 10 mM Bistris, citrate or MES with 200 mM KCl, 2.5 mM MgCl2.

SMILES strings stand for the structures.

Take `Nc1ncnc2c1ncn2[C@@H]1O[C@H](COP(=O)(O)OC(=O)CCCC[C@@H]2SC[C@@H]3NC(=O)N[C@@H]32)[C@@H](O)[C@H]1O` [bio-5'-AMP]: the Kd in test [1] was 1.3 nM; in test [2], 22 nM; in test [3], 10 nM.
Regarding `Nc1ncnc2c1ncn2[C@@H]1O[C@H](COP(=O)(O)OCCCCC[C@@H]2SC[C@@H]3NC(=O)N[C@@H]32)[C@@H](O)[C@H]1O` [btnOH-AMP], the “ITC, TAPS, proton linkage (enthalpy only)” value in test [4] is “btnOH-AMP binding to BirA^wt is linked to proton release”.
